Experiment [1] has as its system MCF7. The experiment can be described thus: Antiproliferative activity against human MCF7 cells.
The nature of experiment [2]: Downregulation of ERalpha expression in human MCF7 cells measured for 24 hrs by Western blot analysis. The following applies: MCF7, 24 h. (A western blot detects proteins with antibodies after separation by electrophoresis.)
Experiment [3] concerns MCF7. The experiment can be described thus: Antiproliferative activity against human MCF-7 cells assessed as reduction in cell viability incubated for 48 hrs by MTT assay. The settings on record: MCF7, 48 h. In general terms: Tetrazolium dyes change colour on reduction, which living cells bring about.
In experiment [4] the test system is MCF7. The experiment can be described thus: Antiproliferative activity against human MCF7 cells assessed as reduction in cell viability by MTT assay.
The test system of experiment [5] is MDA-MB-231. Put plainly: Antiproliferative activity against human MDA-MB-231 cells assessed as reduction in cell viability by MTT assay.
For experiment [6], the system named is Ishikawa. The experiment can be described thus: Antiproliferative activity against human Ishikawa cells assessed as reduction in cell viability incubated for 48 hrs by MTT assay.
For experiment [7], the system named is MCF7. Put plainly: Cytotoxicity against human MCF7 cells assessed as reduction in cell viability incubated for 24 hrs by MTT assay. The following applies: MCF7, 24 h.
The target of experiment [8] is T1, Aromatase (Homo sapiens, UniProt P11511).
T1 sequence (P11511 whole entry): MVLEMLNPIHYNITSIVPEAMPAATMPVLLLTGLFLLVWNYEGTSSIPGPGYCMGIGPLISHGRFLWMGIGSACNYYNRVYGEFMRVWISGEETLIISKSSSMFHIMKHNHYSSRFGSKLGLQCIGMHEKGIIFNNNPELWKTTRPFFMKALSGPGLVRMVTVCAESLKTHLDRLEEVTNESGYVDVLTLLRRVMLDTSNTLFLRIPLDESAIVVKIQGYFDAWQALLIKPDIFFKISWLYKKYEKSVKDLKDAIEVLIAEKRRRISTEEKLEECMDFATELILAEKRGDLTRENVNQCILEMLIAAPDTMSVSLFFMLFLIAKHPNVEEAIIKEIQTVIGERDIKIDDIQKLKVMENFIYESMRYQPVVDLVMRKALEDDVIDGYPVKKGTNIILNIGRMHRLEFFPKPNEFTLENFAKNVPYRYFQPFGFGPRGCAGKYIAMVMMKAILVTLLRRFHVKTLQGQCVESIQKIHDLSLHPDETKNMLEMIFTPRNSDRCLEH
Put plainly: Binding affinity to human placental aromatase in MCF7 cells assessed as inhibition constant.

The subject of experiment [9] is MCF7. The experiment can be described thus: Cytotoxicity against human MCF7 cells.
Experiment [10] has as its system HEK-293T. The experiment can be described thus: Cytotoxicity against HEK293T cells. The following applies: Homo sapiens.

Molecules are shown by their SMILES.

Drawing on ChEMBL document CHEMBL6114981, “Research progress of flavonoids targeting estrogen receptor in the treatment of breast cancer” (Bioorg Med Chem, 2025), this text covers IC50 and Ki for 20 compounds.

For `CC1=C(c2ccc(OC(=O)C(C)(C)C)cc2)[C@H](c2ccc(OCCN3CCCCC3)cc2)Oc2cc(OC(=O)C(C)(C)C)ccc21`, in experiment [1], the IC50 (usually the concentration at which inhibition is half-maximal) was 0.58 nM.
In the case of `O=C(O)/C=C/c1ccc(Cc2c(-c3ccccc3)c(=O)oc3cc(O)ccc23)cc1`, 1180 nM corresponded to half-maximal inhibition in experiment [2] (IC50).
Regarding `Cc1cc(OC(F)(F)F)ccc1-c1c(Oc2ccc(/C=C/C(=O)O)cc2)c2ccc(O)cc2oc1=O`, it took 3 nM to reach half-maximal inhibition in experiment [2] (IC50).
Still for that read-out and setting: next, `Cc1cc(OC(F)(F)F)ccc1-c1c(Oc2ccc(/C=C/C(=O)O)cc2)c2ccccc2oc1=O`: 810 nM.
As for `O=c1oc2cc(O)ccc2c(Oc2ccc(OCCN3CCCCC3)cc2)c1-c1ccc(F)cc1`, in experiment [3], the IC50 is 2190 nM.
In experiment [2], `COc1ccc(C(=O)C2=C(Oc3ccc(/C=C/C(=O)O)cc3)c3ccc(O)cc3OC2)cc1` gave an IC50 of 100 nM.
For the compound `COc1ccc(-c2c(C(=O)c3ccc(OCCN4CCCCC4)cc3)c3ccc(OC)cc3oc2=O)cc1`, the values for the IC50 in [4] and in experiment [5] were 5700 nM and 12700 nM, respectively.
In the case of `COc1cc2c(cc1C(=O)c1ccc(OCCN3CCCCC3)cc1)C=C(c1ccccc1)C(C)(C)O2`, the IC50 in experiment [6] is 17700 nM.
`CN1CCN(c2ccc(-c3cc(=O)c4ccccc4o3)cc2)CC1` returned an IC50 in experiment [1] of 2720 nM.
Turning to `CC1=C(c2cc(F)cc(F)c2)[C@@H](c2ccc(/C=C/CN3CC(CF)C3)cc2)Oc2cc(O)ccc21`, the IC50 in experiment [7] is 69.9 nM.
In the case of `C[C@@H]1OC(Oc2cc(O)c3c(=O)c(O[C@H]4OC[C@@](O)(CO)[C@@H]4O)c(-c4ccc(O)cc4)oc3c2)[C@H](O)[C@H](O)[C@H]1O` (stereo partly specified), the IC50 in [7] stood at 48 nM.
With `COc1cc(O)c2c(c1)OC(c1ccc(O)cc1)CC2=O` (single isomer, unassigned) [SAKURANETIN], in experiment [8], the Ki (in general, the equilibrium dissociation constant of an inhibitor or competing ligand from its target) was determined as 1200 nM.
In turn, `CC1=C(c2ccc(O)cc2)[C@H](c2ccc(OCCN3CCCCC3)cc2)Oc2cc(O)ccc21` [ACOLBIFENE] yielded an IC50 in [1] of 0.32 nM.
As for `COc1ccc(-c2cc(=O)c3c(O)cc(OC)cc3o2)cc1` [APIGENIN DIMETHYLETHER], the Ki in experiment [8] came to 2100 nM.
As to `CC1=C(c2cc(F)cc(F)c2)[C@H](c2ccc(/C=C/CN3CC(CF)C3)cc2)Oc2cc(O)ccc21` [BEXIRESTRANT], the IC50 in experiment [7] amounted to 0.3 nM.
For `O=c1c(O)c(-c2ccc(O)c(O)c2)oc2cc(O)ccc12` [FISETIN], the IC50 in experiment [9] amounted to 8500 nM.
As for `COc1cc(O)c2c(=O)cc(-c3ccc(OC)c(-c4c(O)cc(O)c5c(=O)cc(-c6ccc(O)cc6)oc45)c3)oc2c1` [GINKGETIN], the IC50 in experiment [9] is 10000 nM.
With `O=C1C[C@@H](c2ccccc2)Oc2cc(O)cc(O)c21` [PINOCEMBRIN], in [8], the Ki amounted to 10800 nM.
`O=c1c(O)c(-c2ccc(O)c(O)c2)oc2cc(O)cc(O)c12` [QUERCETIN] returned a half-inhibitory concentration (IC50) in experiment [10] of 1200 nM.
As to `C=C(C)[C@H]1Cc2c(ccc3c2O[C@@H]2COc4cc(OC)c(OC)cc4[C@@H]2C3=O)O1` [ROTENONE], in experiment [8], the Ki was 300 nM.
